Experimental data published in ChEMBL document CHEMBL5625219, “Design, synthesis fusidic acid derivatives alleviate acute lung injury via inhibiting MAPK/NF-κB/NLRP3 pathway” (Eur J Med Chem, 2023).
Activity calls are given as the source filed them.

Assays:
RAW264.7 [1] = test: Anti-inflammatory activity in LPS-stimulated mouse RAW264.7 cells assessed as reduction in COX-2 expression by Western blot analysis; type: functional, cell-based; details: dose 2.5-10 µM
Mus musculus [2] = test: (§1) Anti-inflammatory activity in LPS-induced BALB/c mouse model of […] assessed as inhibition of LPS-induced increase in NO production in BALF at 5 to 20 mg/kg, po preadministered with compound for 3 days followed by LPS stimulation for 6 hrs after 1 hrs compound administration on day 3 by Griess reagent based method; type: functional, organism-based; details: dose 5-20 mg/kg, time 3.0 day
Mus musculus [3] = test: (§2) Anti-inflammatory activity in LPS-induced BALB/c mouse model of […] assessed as attenuation of lung alveolar hemorrhage at 5 to 20 mg/kg, po preadministered with compound for 3 days followed by LPS stimulation for 6 hrs after 1 hrs compound administration on day 3 by H&E staining based analysis; type: functional, organism-based; details: dose 5-20 mg/kg, time 3.0 day
[4] = Cytotoxicity against mouse RAW264.7 cells assessed as inhibition of cell growth incubated for 24 hrs by MTT assay; type: toxicity, cell-based
Mus musculus [5] = test: (§3) In vivo inhibition of NLRP3 inflammasome activation in LPS-induced BALB/c mouse model of […] assessed as reduction in NLRP3 expression preadministered orally with compound for 3 days followed by LPS stimulation for 6 hrs after 1 hrs compound administration on day 3 by Western blot analysis; type: functional; details: dose 5-20 mg/kg, route po, time 3.0 day
RAW264.7 [6] = test: Inhibition of NFkappaB signaling pathway in LPS-stimulated mouse RAW264.7 cells assessed as decrease in NFkappaB protein level at 2.5 to 10 uM by Western blot analysis; type: cell-based; details: dose 2.5-10 µM
Mus musculus [7] = test: as §1, with “TNF-alpha expression” for “NO production”, “serum” for “BALF”, “ELISA” for “Griess reagent based method”; type: functional, organism-based; details: dose 5-20 mg/kg, time 3.0 day
Mus musculus [8] = test: In vivo inhibition of MAPK activation in LPS-induced BALB/c mouse model of […] assessed as inhibition of JNK phosphorylation preadministered orally with compound for 3 days followed by LPS stimulation for 6 hrs after 1 hrs compound administration on day 3 by Western blot analysis; type: functional; details: dose 5-20 mg/kg, route po, time 3.0 day
RAW264.7 [9] = test: cells; details: Mus musculus
Description: Anti-inflammatory activity in mouse RAW264.7 cells assessed as inhibition of LPS-induced NO production preincubated with compound for 1 hrs followed by LPS stimulation and measured after 23 hrs by Griess reagent based method

Mus musculus [10] = test: (§4) Anti-inflammatory activity in LPS-induced BALB/c mouse model of […] assessed as inhibition of LPS-induced increase in lung W/D ratio at 5 to 20 mg/kg, po preadministered with compound for 3 days followed by LPS stimulation for 6 hrs after 1 hrs compound administration on day 3; type: functional, organism-based; details: dose 5-20 mg/kg, time 3.0 day
Mus musculus [11] = test: In vivo inhibition of MAPK activation in LPS-induced BALB/c mouse model of […] assessed as inhibition of p38 MAPK phosphorylation preadministered orally with compound for 3 days followed by LPS stimulation for 6 hrs after 1 hrs compound administration on day 3 by Western blot analysis; type: functional; details: dose 5-20 mg/kg, route po, time 3.0 day
Mus musculus [12] = test: (§5) In vivo inhibition of NFkappaB activation in LPS-induced BALB/c mouse model of […] assessed as inhibition of NFkappaB degradation preadministered orally with compound for 3 days followed by LPS stimulation for 6 hrs after 1 hrs compound administration on day 3 by Western blot analysis; type: functional; details: dose 5-20 mg/kg, route po, time 3.0 day
Mus musculus [13] = test: as §4, with “increase in IL-6 expression in serum at 5” for “increase in lung W/D ratio at 5”, “day 3 by ELISA” for “day 3”; type: functional, organism-based; details: dose 5-20 mg/kg, time 3.0 day
Mus musculus [14] = test: Anti-inflammatory activity in LPS-induced BALB/c mouse model of […] assessed as inhibition of COX-2 expression preadministered orally with compound for 3 days followed by LPS stimulation for 6 hrs after 1 hrs compound administration on day 3 by Western blot analysis; type: functional, organism-based; details: dose 5-20 mg/kg, route po, time 3.0 day
RAW264.7 [15] = test: cells; details: Mus musculus; remark: listed apart in the source
Description: Anti-inflammatory activity in mouse RAW264.7 cells assessed as inhibition of LPS-induced TNF-alpha production preincubated with compound for 1 hrs followed by LPS stimulation and measured after 23 hrs by ELISA

RAW264.7 [16] = test: Cytotoxicity against mouse RAW264.7 cells assessed as reduction in cell viability at 30 uM incubated for 24 hrs by MTT assay relative to control; type: toxicity, cell-based; details: raw264.7, 24 h
Mus musculus [17] = test: as §1, with “serum” for “BALF”; type: functional, organism-based; details: dose 5-20 mg/kg, time 3.0 day
RAW264.7 [18] = test: Inhibition of MAPK signaling pathway in LPS-stimulated mouse RAW264.7 cells assessed as decrease in phosphorylation of p38 MAPK at 2.5 to 10 uM by Western blot analysis; type: cell-based; details: dose 2.5-10 µM
Mus musculus [19] = test: In vivo inhibition of MAPK activation in LPS-induced BALB/c mouse model of […] assessed as inhibition of ERK phosphorylation preadministered orally with compound for 3 days followed by LPS stimulation for 6 hrs after 1 hrs compound administration on day 3 by Western blot analysis; type: functional; details: dose 5-20 mg/kg, route po, time 3.0 day
[20] = target: NACHT, LRR and PYD domains-containing protein 3 (Mus musculus) (UniProt Q8R4B8); test: Inhibition of NLRP3 inflammasome activation in LPS-stimulated mouse RAW264.7 cells assessed as downregulation of IL-1beta expression by Western blot analysis; type: cell-based; details: dose 2.5-10 µM
Mus musculus [21] = test: as §3, with “in IL-1beta” for “in NLRP3”; type: functional; details: dose 5-20 mg/kg, route po, time 3.0 day
Mus musculus [22] = test: as §5, with “inhibition of IkappaBalpha degradation preadministered” for “inhibition of NFkappaB degradation preadministered”; type: functional; details: dose 5-20 mg/kg, route po, time 3.0 day
Mus musculus [23] = test: as §3, with “in caspase-1” for “in NLRP3”; type: functional; details: dose 5-20 mg/kg, route po, time 3.0 day
RAW264.7 [24] = test: Inhibition of NFkappaB signaling pathway in LPS-stimulated mouse RAW264.7 cells assessed as decrease in IkappaBalpha protein level at 2.5 to 10 uM by Western blot analysis; type: cell-based; details: dose 2.5-10 µM
RAW264.7 [25] = test: Anti-inflammatory activity in LPS-stimulated mouse RAW264.7 cells assessed as reduction in iNOS expression by Western blot analysis; type: functional, cell-based; details: dose 2.5-10 µM
[26] = target: NACHT, LRR and PYD domains-containing protein 3 (Mus musculus) (UniProt Q8R4B8); test: Inhibition of NLRP3 inflammasome activation in LPS-stimulated mouse RAW264.7 cells assessed as decrease in caspase-1 expression at 2.5 to 10 uM by Western blot analysis; type: cell-based; details: dose 2.5-10 µM
Mus musculus [27] = test: as §2, with “inflammatory cell infiltration in lungs” for “lung alveolar hemorrhage”; type: functional, organism-based; details: dose 5-20 mg/kg, time 3.0 day
RAW264.7 [28] = test: Anti-inflammatory activity in LPS-stimulated mouse RAW264.7 cells assessed as inhibition of ROS production at 2.5 to 10 uM preincubated with compound for 1 hrs followed by LPS stimulation and measured after 23 hrs by DCFH-DA staining based flow cytometric analysis; type: functional, cell-based; details: dose 2.5-10 µM, time 24.0 hrs
RAW264.7 [29] = test: cells; details: Mus musculus; remark: listed apart in the source
Description: Anti-inflammatory activity in mouse RAW264.7 cells assessed as inhibition of LPS-induced IL-6 production preincubated with compound for 1 hrs followed by LPS stimulation and measured after 23 hrs by ELISA

RAW264.7 [30] = test: Inhibition of MAPK signaling pathway in LPS-stimulated mouse RAW264.7 cells assessed as decrease in phosphorylation of ERK at 2.5 to 10 uM by Western blot analysis; type: cell-based; details: dose 2.5-10 µM
[31] = target: NACHT, LRR and PYD domains-containing protein 3 (Mus musculus) (UniProt Q8R4B8); test: Inhibition of NLRP3 inflammasome activation in LPS-stimulated mouse RAW264.7 cells assessed as downregulation of NLRP3 expression by Western blot analysis; type: cell-based; details: dose 2.5-10 µM
Mus musculus [32] = test: as §4, with “increase in IL-6 expression in BALF at 5” for “increase in lung W/D ratio at 5”, “day 3 by ELISA” for “day 3”; type: functional, organism-based; details: dose 5-20 mg/kg, time 3.0 day
Mus musculus [33] = test: as §4, with “increase in TNF-alpha expression in BALF at 5” for “increase in lung W/D ratio at 5”, “day 3 by ELISA” for “day 3”; type: functional, organism-based; details: dose 5-20 mg/kg, time 3.0 day
RAW264.7 [34] = test: Anti-inflammatory activity in LPS-stimulated mouse RAW264.7 cells assessed as inhibition of ROS production preincubated with compound for 1 hrs followed by LPS stimulation and measured after 23 hrs by DCFH-DA staining based confocal laser microscopic analysis; type: functional, cell-based; details: dose 2.5-10 µM, time 24.0 hrs
RAW264.7 [35] = test: Inhibition of MAPK signaling pathway in LPS-stimulated mouse RAW264.7 cells assessed as decrease in phosphorylation of JNK at 2.5 to 10 uM by Western blot analysis; type: cell-based; details: dose 2.5-10 µM
Mus musculus [36] = test: Anti-inflammatory activity in LPS-induced BALB/c mouse model of […] assessed as inhibition of iNOS expression preadministered orally with compound for 3 days followed by LPS stimulation for 6 hrs after 1 hrs compound administration on day 3 by Western blot analysis; type: functional, organism-based; details: dose 5-20 mg/kg, route po, time 3.0 day

Sequence of NACHT, LRR and PYD domains-containing protein 3 (Mus musculus) (Q8R4B8 whole entry, the tested form may be a part): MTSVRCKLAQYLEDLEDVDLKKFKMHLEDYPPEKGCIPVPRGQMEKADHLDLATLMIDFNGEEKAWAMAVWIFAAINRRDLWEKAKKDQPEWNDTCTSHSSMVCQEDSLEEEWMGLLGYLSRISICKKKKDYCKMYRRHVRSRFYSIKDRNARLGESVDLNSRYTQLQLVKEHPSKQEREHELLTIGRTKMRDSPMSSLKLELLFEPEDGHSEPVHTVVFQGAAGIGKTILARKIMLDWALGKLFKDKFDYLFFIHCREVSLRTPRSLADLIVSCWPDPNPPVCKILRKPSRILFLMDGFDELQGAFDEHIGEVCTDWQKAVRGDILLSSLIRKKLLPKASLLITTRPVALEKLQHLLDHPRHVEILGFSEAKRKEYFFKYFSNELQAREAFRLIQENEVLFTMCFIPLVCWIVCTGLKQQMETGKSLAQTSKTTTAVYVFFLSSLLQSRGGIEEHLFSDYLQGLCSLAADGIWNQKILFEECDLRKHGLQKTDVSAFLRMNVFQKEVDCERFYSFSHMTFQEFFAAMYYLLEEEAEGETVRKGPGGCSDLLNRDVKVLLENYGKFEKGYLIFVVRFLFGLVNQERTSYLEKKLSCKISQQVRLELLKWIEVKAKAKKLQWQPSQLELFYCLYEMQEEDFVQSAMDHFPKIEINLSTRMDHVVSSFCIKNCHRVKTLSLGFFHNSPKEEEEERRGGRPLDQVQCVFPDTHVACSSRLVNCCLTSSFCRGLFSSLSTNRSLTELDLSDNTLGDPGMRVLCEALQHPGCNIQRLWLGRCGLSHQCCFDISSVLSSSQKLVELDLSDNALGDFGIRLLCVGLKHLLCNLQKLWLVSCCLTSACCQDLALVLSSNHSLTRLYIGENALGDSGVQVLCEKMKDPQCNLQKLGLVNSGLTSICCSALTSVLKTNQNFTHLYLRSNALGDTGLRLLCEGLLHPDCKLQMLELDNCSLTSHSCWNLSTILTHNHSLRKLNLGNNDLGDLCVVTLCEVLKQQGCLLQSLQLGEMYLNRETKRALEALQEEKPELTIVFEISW

CC(=O)O[C@H]1C[C@@]2(C)[C@@H](C[C@@H](O)[C@H]3[C@@]4(C)CC[C@@H](O)[C@@H](C)[C@@H]4CC[C@@]32C)/C1=C(\CCC=C(C)C)C(=O)OCc1cn(-c2ccccc2)nn1
3.26 µM: IC50 (RAW264.7 [9])
1.85 µM: IC50 (RAW264.7 [29])
active: Activity (RAW264.7 [1]) Dose-Dependent Effect | Activity (Mus musculus [2]) | Activity (Mus musculus [3]) | inhibition (Mus musculus [5]) Dose-Dependent Effect | inhibition (RAW264.7 [6]) | Activity (Mus musculus [7]) | inhibition (Mus musculus [8]) Dose-Dependent Effect | Activity (Mus musculus [10]) | inhibition (Mus musculus [11]) Dose-Dependent Effect | inhibition (Mus musculus [12]) Dose-Dependent Effect | Activity (Mus musculus [13]) | Activity (Mus musculus [14]) Dose-Dependent Effect | Activity (Mus musculus [17]) | inhibition (RAW264.7 [18]) | inhibition (Mus musculus [19]) Dose-Dependent Effect | inhibition [20] Dose-Dependent Effect | inhibition (Mus musculus [21]) Dose-Dependent Effect | inhibition (Mus musculus [22]) Dose-Dependent Effect | inhibition (Mus musculus [23]) Dose-Dependent Effect | inhibition (RAW264.7 [24]) | Activity (RAW264.7 [25]) Dose-Dependent Effect | inhibition [26] | Activity (Mus musculus [27]) | Activity (RAW264.7 [28]) | inhibition (RAW264.7 [30]) | inhibition [31] Dose-Dependent Effect | Activity (Mus musculus [32]) | Activity (Mus musculus [33]) | Activity (RAW264.7 [34]) Dose-Dependent Effect | inhibition (RAW264.7 [35]) | Activity (Mus musculus [36]) Dose-Dependent Effect
3.88 µM: IC50 (RAW264.7 [15])
102.79%: Activity (RAW264.7 [16])
94.3 µM: IC50 at 24 h [4]
